Source: patent US10392599B2, “Method for non-freeze low-temperature preservation of mammalian embryo or fertilized egg” (NATIONAL FEDERATION OF AGRICULTURAL COOPERATIVE ASSOCIATIONS, priority 2012, dated 2019)

Legend:
[1] = tested on: bovine embryos; test: in vitro culture test of low-quality bovine embryos after 7 days of non-freezing preservation (survival, hatching); type: cell-based, Japanese Black Cattle and Holstein Cattle; conditions: for Hatched embryos (%) / Survival rate (%) / Hatched embryos: number / Survival rate: number of surviving embryos: medium 199, low temperature 7 days; for Hatched embryos: number / Survival rate: number of surviving embryos: out of N; for Number of hatched embryos (%) / Number of live embryos (%) / Number of hatched embryos / Number of live embryos: medium 199, 7 days non-frozen
Method: (§1) Embryos collected from donor bovine animals of Japanese Black Cattle and Holstein Cattle after superovulation were evaluated for their qualities according to the regulation by International Embryo Transfer Society (IETS manual. Manual of the international embryo transfer society. In: Stringfellow D A, Seidel S M, editors. Savoy, Ill., USA: IETS 1998). Low-quality embryos were subjected to an in vitro culture test after 7 days of non-freezing preservation, and high-quality embryos were subjected to investigation of the conception rate after implantation to recipient cattle.
(§2) Preservation of bovine embryos was carried out as follows (FIG. 1). First, a preservative solution alone was sucked into a straw having a capacity of 0.25 ml, and, after introduction of an air layer, a bovine embryo contained in the preservative solution was sucked. Thereafter, an air layer was introduced, and the preservative solution alone was sucked again. The straw was then sealed. Subsequently, the straw containing the sucked bovine embryo was immersed in water contained in a plastic container (plastic tube) which had been preliminarily cooled to 4 to 5° C. The plastic container was then stored in a refrigerator for 7 days at 4 to 5° C.
(§3) After the non-freezing preservation, the bovine embryo was washed 3 times by immersion in PBS(+) containing 5% (v/v) fetal bovine serum (FBS). The washed bovine embryo was cultured under 5% CO2 at 38° C. in CR1aa medium containing 5% (v/v) FBS for 48 hours. Morphological observation was carried out under a stereoscopic microscope, and the embryo was judged to be alive if the progress of cleavage by the culture could be found and the cytoplasmic membrane was not disrupted. Live cells were checked for whether hatching from the zona pellucida could be observed or not. A bovine embryo washed with PBS(+) containing 5% (v/v) FBS was nonsurgically implanted into the deep part of the corpus-luteum-side uterine horn of each recipient cattle on Day 6 to 8 of an estrous cycle (the date of estrus was defined as Day 0). On Days 30 and 60 of the estrous cycle, pregnancy diagnosis was carried out. For a significance test to verify the effect of the embryo preservation solution according to the present invention, a χ^2 test was used.
(§4) To medium 199 (Invitrogen) supplemented with antibiotics (penicillin G potassium and streptomycin sulfate), FBS was added to 20 to 50% (v/v), and HEPES was also added to a concentration of 0 to 100 mM. In the conception test, a group in which a special peptide having a protection effect against low temperature (mature Nfel1, SEQ ID NO:2) was added was also provided. In addition, in order to investigate the effects of other Good's buffers other than HEPES, preservation solutions were prepared by adding FBS and a Good's buffer (PIPES or MOPS) to medium 199 such that the concentration of FBS was 50% (v/v) and the concentration of the Good's buffer was 25 mM. These preservation solutions were sterilized by filtration through a filter having a pore size of 0.2 μm, and stored in a refrigerator until use.
Using medium 199 to which a Good's buffer was added at 25 mM (FBS concentration, 50% (v/v) FBS), bovine embryos were preserved at low temperature for 7 days, and the survival rate and the hatching rate were investigated by the method described above. […] In Table 3, “pH” indicates the pH of the medium upon completion of the refrigerated storage for 7 days.

[2] = pH of the preservative solution upon completion of preservation; type: physicochemical; conditions: for pH of the medium upon completion of the refrigerated storage for 7 days: Good's buffer 25 mM, FBS 50% (v/v), medium 199; for pH upon completion of preservation: medium 199, 7 days
Method: Preservation of bovine embryos was carried out as follows (FIG. 1). First, a preservative solution alone was sucked into a straw having a capacity of 0.25 ml, and, after introduction of an air layer, a bovine embryo contained in the preservative solution was sucked. Thereafter, an air layer was introduced, and the preservative solution alone was sucked again. The straw was then sealed. Subsequently, the straw containing the sucked bovine embryo was immersed in water contained in a plastic container (plastic tube) which had been preliminarily cooled to 4 to 5° C. The plastic container was then stored in a refrigerator for 7 days at 4 to 5° C. […]

[3] = tested on: bovine embryos; test: conception test: implantation of high-quality bovine embryos preserved 7 days in the non-frozen state into recipient cattle; type: in vivo; conditions: 25 mM HEPES; for Conceptus number on Day 30 / Conceptus number on Day 60: 16 implanted embryos
Method: as §1, §2, §3, §4
Subsequently, the conception ability of high-quality bovine embryos that had been preserved in the non-frozen state for 7 days was investigated. Since the concentration of HEPES generally recommended for use in cell culture is 10 to 25 mM (Luo S et al., Effect of HEPES buffer on the uptake and transport of P-glycoprotein substrates and large neutral amino acids. Mol Pharm 2010; 7:412-420), the concentration of HEPES in the non-freezing preservative solution used in the present test for investigation of the conception ability was set to 25 mM. The special recombinant peptide having a protection effect against low temperature (mature Nfel1 peptide) was added to medium 199 containing 50% (v/v) FBS supplemented with 25 mM HEPES, to see whether the peptide improves the conception ability or not.

[4] = tested on: bovine embryos; conditions: mature Nfel1 in combination with about 20 to 50% (v/v) serum; cited from earlier work
[5] = Good's buffer 25 mM, FBS 50% (v/v)
[6] = 12.5 mM HEPES, 20% FBS, 35 tested embryos
[7] = 12.5 mM HEPES, 50% FBS, 35 tested embryos
[8] = 25 mM HEPES, 20% FBS, 36 tested embryos
[9] = 25 mM HEPES, 50% FBS, 36 tested embryos
[10] = 50 mM HEPES, 20% FBS, 30 tested embryos
[11] = 50 mM HEPES, 50% FBS, 30 tested embryos
[12] = 100 mM HEPES, 50% FBS, 20 tested embryos
[13] = medium 199, 50% (v/v) FBS, 7 days non-frozen
[14] = 25 mM tris (pH adjusted to 7.2 with hydrochloric acid), medium 199, 50% (v/v) FBS, 7 days

In the case of `O=S(=O)(O)CCCN1CCN(CCO)CC1` [EPPS, 3-[4-(2-Hydroxyethyl)-1-piperazinyl]propanesulfonic acid], the “Hatched embryos (%)” value [1, 5] is reported as 10.0%, the “Survival rate (%)” value [1, 5] is reported as 35.0% and the “Hatched embryos: number” value [1, 5] is reported as 2. For the same compound, the “Survival rate: number of surviving embryos” value (“Survival rate: number” for short) [1, 5] was 7 and the “pH of the medium upon completion of the refrigerated storage for 7 days” value (“pH of the medium upon completion … for 7 days” below) [2] was 7.3.
For `O=S(=O)(O)CCN1CCN(CCO)CC1` [HEPES, 4-(2-hydroxyethyl)-1-piperazineethanesulfonic acid], the “Number of hatched embryos (%)” value ([1]; 12.5 mM HEPES, 20% FBS) was 8.6%, the “Number of live embryos (%)” value ([1]; 12.5 mM HEPES, 20% FBS) was 25.7% and the “Number of hatched embryos” value [1, 6] was 3. For the same compound, the “Number of live embryos” value [1, 6] was 9, the “Number of hatched embryos (%)” value ([1]; 12.5 mM HEPES, 50% FBS) was 25.7% and the “Number of live embryos (%)” value ([1]; 12.5 mM HEPES, 50% FBS) was 54.3%. The “Number of hatched embryos” value [1, 7] was 9, the “Number of live embryos” value [1, 7] was 19 and the “Number of hatched embryos (%)” value ([1]; 25 mM HEPES, 20% FBS) was 25.0%. The “Number of live embryos (%)” value ([1]; 25 mM HEPES, 20% FBS) was 63.9%, the “Number of hatched embryos” value [1, 8] was 9 and the “Number of live embryos” value [1, 8] was 23. The “Number of hatched embryos (%)” value ([1]; 25 mM HEPES, 50% FBS) was 36.1%, the “Number of live embryos (%)” value ([1]; 25 mM HEPES, 50% FBS) was 69.4% and the “Number of hatched embryos” value [1, 9] was 13. For the same compound, the “Number of live embryos” value [1, 9] was 25, the “Number of hatched embryos (%)” value ([1]; 50 mM HEPES, 20% FBS) was 26.7% and the “Number of live embryos (%)” value ([1]; 50 mM HEPES, 20% FBS) was 63.3%. The “Number of hatched embryos” value [1, 10] was 8, the “Number of live embryos” value [1, 10] was 19 and the “Number of hatched embryos (%)” value ([1]; 50 mM HEPES, 50% FBS) was 33.3%. The “Number of live embryos (%)” value ([1]; 50 mM HEPES, 50% FBS) was 73.3%, the “Number of hatched embryos” value [1, 11] was 10 and the “Number of live embryos” value [1, 11] was 22. The “Number of hatched embryos (%)” value ([1]; 100 mM HEPES, 50% FBS) was 20.0%, the “Number of live embryos (%)” value ([1]; 100 mM HEPES, 50% FBS) was 65.0% and the “Number of hatched embryos” value [1, 12] was 4. The “Number of live embryos” value [1, 12] was 13, the “effect to protect embryos during non-freezing low-temperature preservation, compared among Good's buffers” value ([1]; Good's buffer 25 mM, FBS 50% (v/v), medium 199, 7 days) was “highest effect” and the “Hatched embryos (%)” value [1, 5] was 36.1%. For the same compound, the “Survival rate (%)” value [1, 5] was 69.4%, the “Hatched embryos: number” value [1, 5] was 13 and the “Survival rate: number” value [1, 5] was 25. The “survival rate after preservation for 7 days compared to the HEPES-free group” value ([1]; HEPES 12.5 to 100 mM, low-quality bovine embryos) was “higher survival rate”, the “rate of hatching from the zona pellucida” value ([1]; HEPES 25 to 50 mM, FBS 50% (v/v)) was “especially high” and the conception rate ([3]; high-quality bovine embryos, 7 days non-frozen, medium 199, 50% (v/v) FBS) was 75.0%. For the same compound, the “Conceptus number on Day 30 (%)” value [3, 13] was 75.0%, the “Conceptus number on Day 60 (%)” value [3, 13] was 75.0% and the birth of calves [3, 13] was “birth of normal calves could be observed”. The “death of early embryos between Day 30 and Day 60 of pregnancy” value [3, 13] was “not found”, the “Conceptus number on Day 30” value [3, 13] was 12 and the “Conceptus number on Day 60” value [3, 13] was 12. The “pH upon completion of preservation” value ([2]; 12.5 mM HEPES, 20% FBS) was 7.4, the “pH upon completion of preservation” value ([2]; 12.5 mM HEPES, 50% FBS) was 7.4 and the “pH upon completion of preservation” value ([2]; 25 mM HEPES, 20% FBS) was 7.3. For the same compound, the “pH upon completion of preservation” value ([2]; 25 mM HEPES, 50% FBS) was 7.0, the “pH upon completion of preservation” value ([2]; 50 mM HEPES, 20% FBS) was 6.9 and the “pH upon completion of preservation” value ([2]; 50 mM HEPES, 50% FBS) was 6.8. The “pH upon completion of preservation” value ([2]; 100 mM HEPES, 50% FBS) was 6.9, the “pH of the medium upon completion … for 7 days” value [2] was 7.0 and the “pH of the non-freezing preservative solution containing HEPES upon completion of the preservation” value ([2]; HEPES-containing solutions of Table 1) was 6.9 to 7.4.
With `O=S(=O)(O)CCCN1CCOCC1` [MOPS, 3-Morpholinopropanesulfonic acid] the “Hatched embryos (%)” value [1, 5] was 25.0%, the “Survival rate (%)” value [1, 5] was 45.0% and the “Hatched embryos: number” value [1, 5] was 5. For the same compound, the “Survival rate: number” value [1, 5] was 9 and the “pH of the medium upon completion … for 7 days” value [2] was 7.0.
In the case of `O=S(=O)(O)CCN1CCN(CCS(=O)(=O)O)CC1` [PIPES, Piperazine-1,4-bis(2-ethanesulfonic acid)], the “Hatched embryos (%)” value [1, 5] is reported as 25.0%, the “Survival rate (%)” value [1, 5] is reported as 40.0% and the “Hatched embryos: number” value [1, 5] is reported as 5. The “Survival rate: number” value [1, 5] was 8 and the “pH of the medium upon completion … for 7 days” value [2] was 7.0.
With `O=S(=O)(O)CCNC(CO)(CO)CO` [TES, N-Tris(hydroxymethyl)methyl-2-aminoethanesulfonic acid] the “Hatched embryos (%)” value [1, 5] was 15.0%, the “Survival rate (%)” value [1, 5] was 30.0% and the “Hatched embryos: number” value [1, 5] was 3. For the same compound, the “Survival rate: number” value [1, 5] was 6 and the “pH of the medium upon completion … for 7 days” value [2] was 7.2.
With “Special recombinant peptide: special peptide having a protection effect against low temperature (mature Nfel1, SEQ ID NO:2), 66 residues, expressed in E. coli” the “Conceptus number on Day 30 (%)” value [3, 13] was 75.0%, the “Conceptus number on Day 60 (%)” value [3, 13] was 75.0% and the “Conceptus number on Day 30” value [3, 13] was 12. The “Conceptus number on Day 60” value [3, 13] was 12, the conception-promoting effect ([3]; peptide added to medium 199, 50% (v/v) FBS) was “No conception-promoting effect was found” and the “period of preservation of bovine embryos at non-freezing low temperature” value [4] was “up to 5 days”.
For “tris(hydroxymethyl)aminomethane [reference compound]”, the “hatching rate after the preservation” value [1, 14] was 5.0%, the “survival rate after the preservation” value [1, 14] was 10.0% and the “pH after the low-temperature preservation” value ([2]; 25 mM tris, medium 199, 50% (v/v) FBS, 7 days) was 7.2.
